US20160038439A1, “Use of 7-a-[9-(4,4,5,5,5-pentafluoropentylsulfinyl)nonyl]-estra-1,3,5(10)- triene-3,17B-diol and derivatives thereof” (XI'ANLIBANG PHARMACEUTICAL TECHNOLOGY CO., LTD., priority 2013, published 2016)
Marks after values point to notes of the source that are not given here.

Tests used:
TNF-α [1] = test: TNF-α level in serum of rats with arthritis (ELISA); type: in vivo, SD rats
Method: (§1) After inflamed model was successfully established in SD rats, the SD rats were randomly divided into model control group (12 rats), low, medium dose group (8 rats for each), and high dose group (12 rats) of test drug depending on body weight. Rats in the model control group were administered a blank fat emulsion injection (0.5 mL) by tail vein injection every other day for 7 days; rats in the low and medium dose group of test drug were administered a fat emulsion injection of a compound of Formula A (specifically including Compounds I-VI described hereafter) by tail vein injection every other day for 7 days; rats in the high dose group of test drug were administered a fat emulsion injection of a compound of Formula A by tail vein injection every other day for 14 days. 12 same models in the normal control group were also administered a blank fat emulsion injection. Indexes such as hindfoot joint score, hindfoot joint thickness measurement, TNF-α level in serum and hindfoot joint tissues, hindfoot joint pathological section and the like were used to evaluate efficacy of the drug.
(§2) Compound I used in the present invention was purchased from Xi′ an Libang Pharmaceutical Co., Ltd.; Compounds II-IV were synthesized by the following method. SD rats used in the present invention were purchased from Super-B&K Laboratory Animal Corp. Ltd.; chicken type II collagen was purchased from Sigma, Lot No. 87H5227; rat tumor necrosis factor-α [TNF-α] enzyme-linked immunoassay kit (ELISA) was purchased from Shanghai Biovol Biotech Co., Ltd., Lot No. BV-E12102201.
(§3) Chicken type II collagen was dissolved in 0.1 mol/L acetic acid at 4° C. while stirring so as to be thoroughly dissolved at a concentration of 2 mg/mL The resulting solution was put into a refrigerator at 4° C. overnight. Liquid paraffin and lanolin were mixed at a ratio of 2:1 (volume ratio), and the mixture was autoclaved to prepare an incomplete Freund's adjuvant (IFA). Bacillus Calmette Guerin (BCG) vaccine (60 mg) was inactivated at 80° C. for 1 hour and transferred to a mortar, into which was dropwise added IFA. After being uniformly grinded, the resulting mixture was pushed and sucked repeatedly by double-syringe to prepare a complete Freund's adjuvant (CFA), with the final concentration of BCG vaccine being 2 mg/mL. An equal amount of chicken type II collagen acid solution was mixed with CFA into a stable emulsion (containing 1 mg chicken type II collagen per milliliter).
(§4) 12 female SD rats were randomly selected from 192 female SD rats as normal control group. The remaining 180 rats was disinfected with iodine tincture. After being deiodinated with 75% ethanol, each of the rat was administered 150 μL collagen emulsion by intradermal injection at the base of the tail, and was administered 100 μL collagen emulsion by intradermal injection at the vola pedis of right hindfoot. Thus, totally 250 μL for each rat was administered. 7 days later, an equal amount of collagen emulsion was intraperitoneal injected as a secondary immune.
(§5) Animal grouping and administration: inflamed rats were divided into model control group, low, medium and high dose groups of test drug based on body weight.
(§6) Rats in each group were scored for the hindfoot joint and measured for the thickness of ankle joint before being inflamed. Normal rats were taken blood from orbital venous plexus. The serum of the blood was separated out and cryopreserved at −20° C. to detect cytokines. Rats were scored for joint after being inflamed for 3 days, and were measured for the thickness of ankle joint before administration (on the 19th day since being inflamed), on the 3rd day and 8th day after administration (on the […] since being inflamed). Rats in each group were taken blood from orbital venous plexus when inflammation was severe (on the 23rd day after being inflamed). The serum of the blood was separated out and cryopreserved at −20° C. […]

TNF-α [2] = test: TNF-α level in hindfoot ankle joint tissue of rats with arthritis; type: in vivo, SD rats
Method: as §1, §2, §3, §4, §5, §6

[3] = system: chicken type II collagen-induced arthritis model in SD rats; test: Hindfoot joint score in chicken type II collagen-induced arthritis model in SD rats; type: in vivo; design: scale not given here; details: tail vein, every other day
Method: as §1, §3, §4, §5
(§7) Rats in each group were scored for the hindfoot joint and measured for the thickness of ankle joint before being inflamed. Normal rats were taken blood from orbital venous plexus. The serum of the blood was separated out and cryopreserved at −20° C. to detect cytokines. Rats were scored for joint after being inflamed for 3 days, and were measured for the thickness of ankle joint before administration (on the 19th day since being inflamed), on the 3rd day and 8th day after administration (on the […] since being inflamed). Rats in each group were taken blood from orbital venous plexus when inflammation was severe (on the 23rd day after being inflamed). The serum of the blood was separated out and cryopreserved at −20° C. 8 rats for each group were sacrificed on the 28th day after being inflamed and were taken blood from intraperitoneal vein. The serum of the blood was separated out and was subjected to serological detection (TNF-α). The rest of rats were sacrificed on the 35th day after being inflamed, and histology index detection was carried out

[4] = system: chicken type II collagen-induced arthritis model in SD rats; test: Thickness of right hindfoot ankle joint by microcalliper, collagen-induced arthritis rats; type: in vivo
Method: as §1, §3, §4, §5, §7

[5] = system: chicken type II collagen-induced arthritis model in SD rats; test: Pathological examination score of hindfoot ankle joint of rats with arthritis; type: in vivo; details: high dose group (1.40-2.16 mg/kg per compound), every other day for 14 days, n=4
Method: as §1, §3
as §4, with “Thus, totally 250 μL for each rat was administered. 7 days later, an equal amount of collagen emulsion was intraperitoneal injected as a secondary immune.” left out
Rats in each group were scored for the hindfoot joint and measured for the thickness of ankle joint before being inflamed. […] Rats were scored for joint after being inflamed for 3 days, and were measured for the thickness of ankle joint before administration (on the 19th day since being inflamed), on the 3rd day and 8th day after administration (on the 20th day since being inflamed). […]

[6] = high dose group, the 3rd day after administration
[7] = high dose group, the 8th day after administration
[8] = low dose group, the 3rd day after administration
[9] = low dose group, the 8th day after administration
[10] = medium dose group, the 3rd day after administration
[11] = medium dose group, the 8th day after administration
[12] = left ankle joint, high dose group
[13] = left ankle joint, low dose group
[14] = left ankle joint, medium dose group
[15] = right ankle joint, high dose group
[16] = right ankle joint, low dose group
[17] = right ankle joint, medium dose group
[18] = high dose group, before administration (baseline)
[19] = low dose group, before administration (baseline)
[20] = medium dose group, before administration (baseline)

Compound	TNF-α level in serum (mean ± SD) (TNF-α [1]; [6]) [pg/mL]	TNF-α level in serum (mean ± SD) (TNF-α [1]; [7]) [pg/mL]	TNF-α level in serum (mean ± SD) (TNF-α [1]; [8]) [pg/mL]	TNF-α level in serum (mean ± SD) (TNF-α [1]; [9]) [pg/mL]	TNF-α level in serum (mean ± SD) (TNF-α [1]; [10]) [pg/mL]	TNF-α level in serum (mean ± SD) (TNF-α [1]; [11]) [pg/mL]	TNF-α level in ankle (mean ± SD) (TNF-α [2]; [12]) [pg/mL]	TNF-α level in ankle (mean ± SD) (TNF-α [2]; [13]) [pg/mL]	TNF-α level in ankle (mean ± SD) (TNF-α [2]; [14]) [pg/mL]	TNF-α level in ankle (mean ± SD) (TNF-α [2]; [15]) [pg/mL]	TNF-α level in ankle (mean ± SD) (TNF-α [2]; [16]) [pg/mL]	TNF-α level in ankle (mean ± SD) (TNF-α [2]; [17]) [pg/mL]	Mean value of hindfoot joint score [3, 18]	Mean value of hindfoot joint score [3, 6]	Mean value of hindfoot joint score [3, 7]	Mean value of hindfoot joint score [3, 19]	Mean value of hindfoot joint score [3, 8]	Mean value of hindfoot joint score [3, 9]	Mean value of hindfoot joint score [3, 20]	Mean value of hindfoot joint score [3, 10]	also measured
C[C@]12CC[C@@H]3c4ccc(O)cc4C[C@@H](CCCCCCCCC[S+]([O-])CCCC(F)(F)C(F)(F)F)[C@H]3[C@@H]1CC[C@@H]2O (stereo partly drawn) [Compound I, 7-α-[9-(4,4,5,5,5-pentafluoropentylsulfinyl)nonyl]-estra-1,3,5(10)-triene-3,17β-diol, reference compound]	13.48 ± 25.05	18.45 ± 12.72	50.15 ± 60.06	52.78 ± 67.16	31.55 ± 54.58	22.41 ± 25.25	8.66 ± 4.33	10.16 ± 5.82	9.57 ± 5.10	8.98 ± 7.44	10.71 ± 4.61	9.63 ± 3.02	–	–	–	–	–	–	–	–	–
7-α-[9-(4,4,5,5,5-pentafluoropentylsulfinyl)nonyl]-estra-1,3,5(10)-triene-3-hydroxyl-17-docosanoyl [Compound III]	16.53 ± 15.71	10.36 ± 7.08	81.94 ± 141.25	157.89 ± 248.01	12.31 ± 17.56	39.56 ± 29.29	11.05 ± 3.96	12.93 ± 4.15	13.62 ± 3.42	13.85 ± 3.38	14.13 ± 4.20	12.02 ± 5.91	5.4	4.8**^#	5.6	4.5	5.3**^##	5	5	4.8**	Mean value of hindfoot joint score [3, 11]: 5.4; Thickness of ankle joint (mean ± SD) [4, 18]: 6.59 ± 0.44 mm; Thickness of ankle joint (mean ± SD) [4, 6]: 6.55 ± 0.56 mm; Thickness of ankle joint (mean ± SD) [4, 7]: 6.31 ± 0.69 mm; Thickness of ankle joint (mean ± SD) [4, 19]: 5.94 ± 0.52 mm; Thickness of ankle joint (mean ± SD) [4, 8]: 6.22 ± 0.38 mm; Thickness of ankle joint (mean ± SD) [4, 9]: 6.06 ± 0.29 mm; Thickness of ankle joint (mean ± SD) [4, 20]: 6.33 ± 0.52 mm; Thickness of ankle joint (mean ± SD) [4, 10]: 6.45 ± 0.53 mm; Thickness of ankle joint (mean ± SD) [4, 11]: 6.36 ± 0.46 mm; Joint lesion score (mean ± SD) [5]: 1.50 ± 1.91
7-α-[9-(4,4,5,5,5-pentafluoropentylsulfinyl)nonyl]-estra-1,3,5(10)-triene-3-hydroxyl-17-undecanoyl [Compound II]	26.72 ± 35.26	25.65 ± 20.66	48.28 ± 94.84	201.35 ± 250.23	11.00 ± 9.39	75.12 ± 93.40	14.08 ± 4.09	13.79 ± 4.68	15.91 ± 5.84	15.11 ± 4.32	13.79 ± 3.26	12.13 ± 3.35	4.7	5.3**^#	4.9	4.9	4.8**	5.6^#	4.9	4.9**	Mean value of hindfoot joint score [3, 11]: 4.9; Thickness of ankle joint (mean ± SD) [4, 18]: 6.31 ± 0.52 mm; Thickness of ankle joint (mean ± SD) [4, 6]: 6.29 ± 0.69 mm; Thickness of ankle joint (mean ± SD) [4, 7]: 5.83 ± 0.61 mm; Thickness of ankle joint (mean ± SD) [4, 19]: 6.39 ± 0.68 mm; Thickness of ankle joint (mean ± SD) [4, 8]: 6.05 ± 0.55 mm; Thickness of ankle joint (mean ± SD) [4, 9]: 5.98 ± 0.19 mm; Thickness of ankle joint (mean ± SD) [4, 20]: 5.99 ± 0.57 mm; Thickness of ankle joint (mean ± SD) [4, 10]: 6.31 ± 0.54 mm; Thickness of ankle joint (mean ± SD) [4, 11]: 6.31 ± 0.51 mm; Joint lesion score (mean ± SD) [5]: 2.50 ± 2.65
7-α-[9-(4,4,5,5,5-pentafluoropentylsulfinyl)nonyl]-estra-1,3,5(10)-triene-3-acetyl-17-(undec-2-enoyl) [Compound VI]	28.27 ± 37.62	26.56 ± 18.06	47.22 ± 96.55	197.35 ± 231.02	13.08 ± 7.93	78.21 ± 88.90	12.05 ± 4.01	14.39 ± 3.52	13.98 ± 3.66	14.58 ± 2.79	15.31 ± 5.02	12.67 ± 5.23	5.3	4.7**^#	5.5	4.6	5.4**^##	4.9	4.8	4.6**	Mean value of hindfoot joint score [3, 11]: 5.5; Joint lesion score (mean ± SD) [5]: 1.88 ± 1.26
